Reference: publication PMC12518634, “The noncanonical function of liver-type phosphofructokinase potentiates the efficacy of HDAC inhibitors in cancer” (Signal Transduction and Targeted Therapy, 2025)
Structures can show the parent of a compound that is named as a salt. Where two headings read alike, the source gives them in different places.

What was measured:
[1] = system: 1405R3; test: High-throughput drug screen, CellTiter-Glo viability, 72 h; type: cell-based, human; set-up: AUC: scale not given here; settings: for EC50: fitted dose-response curve, Min.Conc.tested 1, Max.Conc.tested 10000, CellTiter-Glo, read-out: EC50
Experimental: (§1) The cells were seeded and incubated with a gradient of concentrations of drugs for 72 h, after which the cell viability was assessed (Supplementary Fig. 1a). The drug library primarily comprises epigenetic drugs, including HDAC inhibitors, DNA methyltransferase inhibitors, and histone demethylase inhibitors, as well as conventional chemotherapies and kinase inhibitors (Supplementary Fig. 1b and Supplementary Table 1). […] To identify novel therapeutics against CCA, we conducted a high-throughput screen employing PerkinElmer’s integrated robotic Explorer G3 workstations. […] Following dilution to five specified concentrations, drugs were dispensed into 96-well plates in the sequence detailed in Supplementary Fig. 1a. The CCA cell lines were subsequently plated in 384-well plates at a density of 3000 cells per well in a 20 μL total volume. After a 24-h incubation, the compounds were added to the wells and incubated for 72 h. We then quantified cell viability via the CellTiter-Glo luminescent assay according to the manufacturer’s protocol. Signal detection was carried out on a Synergy2 plate reader operated by Gen5 software (BioTek). For data processing, the raw luminescence data were processed through the Breeze pipeline for curve fitting, yielding quality control metrics (e.g., Z-factors) and drug response parameters (AUC and DSS), as adapted from previous work.[54] Drug responses were evaluated on the basis of the drug sensitivity score (DSS), and a cutoff of ≥10 was used to define efficacy. The complete drug library and screening dataset are available in Supplementary Tables 1-3.
(§2) Supplementary Fig. 1. A high-throughput drug screen to identify drugs targeting CCA. a Schematic representation of the drug screening protocol. […] Each drug was tested at five different concentrations (10, 1, 0.1, 0.01, and 0.001 μM), and each treatment was replicated twice. b Classification of drugs used for screening.

[2] = system: 783C-6; test: as above; type: cell-based, human; set-up: AUC: scale not given here; settings: for EC50: read-out: EC50
Experimental: as §1, §2

[3] = 1405R3 DSRT analysis, area under the dose-response curve
[4] = 1405R3 DSRT analysis, lower asymptote of fitted dose-response curve
[5] = Homo sapiens, 1405R3 DSRT analysis, 72 h
[6] = 783C-6 DSRT analysis, DSS calculated from the dose-response curve
[7] = 783C-6 DSRT analysis, MIN of the fitted dose-response curve
[8] = 783C-6 DSRT analysis, area under the dose-response curve
[9] = 1405R3 DSRT analysis, slope of fitted dose-response curve
[10] = 783C-6 DSRT analysis, slope of the fitted dose-response curve

CN1CCN(c2ccc3nc(-c4c(N)c5c(F)cccc5[nH]c4=O)[nH]c3c2)CC1 [Dovitinib]
DSS ([1]; 1405R3 DSRT analysis): 4.2
AUC [1, 3]: 38.6
MIN [1, 4]: 29.8
EC50 [1, 5]: 2870 nM
DSS [2, 6]: 4.1
MIN [2, 7]: 35.6
AUC [2, 8]: 37
EC50 ([2]; Homo sapiens, 72 h): 2700 nM

Cc1cc(Cl)ccc1OCCCC(=O)NO [Droxinostat]
DSS ([1]; 1405R3 DSRT analysis): 0
AUC [1, 3]: 1.2
MIN [1, 4]: 97.1
SLOPE [1, 9]: -0.7
DSS [2, 6]: 0
MIN [2, 7]: 90.5
AUC [2, 8]: 2.9
SLOPE [2, 10]: -1

CCC(CC)n1ccc2c(C(=O)NCc3c(C)cc(C)[nH]c3=O)cc(C#N)cc21 [EI1]
DSS ([1]; 1405R3 DSRT analysis): 0
AUC [1, 3]: 0.1
MIN [1, 4]: 100
SLOPE [1, 9]: -0.1
DSS [2, 6]: 0
MIN [2, 7]: 98.2
AUC [2, 8]: 0.7
SLOPE [2, 10]: -0.8

CC(C)N(CCCNC(=O)Nc1ccc(C(C)(C)C)cc1)C[C@H]1O[C@@H](n2ccc3c(N)ncnc32)[C@H](O)[C@@H]1O [EPZ004777]
DSS ([1]; 1405R3 DSRT analysis): 0
AUC [1, 3]: 0.5
MIN [1, 4]: 98.8
DSS [2, 6]: 0
MIN [2, 7]: 97.4
AUC [2, 8]: 0.7

O=C(NC[C@H](O)CN1CCc2ccccc2C1)c1cc(NC2COC2)ncn1 [EPZ015666]
DSS ([1]; 1405R3 DSRT analysis): 0
AUC [1, 3]: 15.4
MIN [1, 4]: 90.1
DSS [2, 6]: 0
MIN [2, 7]: 85
AUC [2, 8]: 4.5

CNCCN(C)Cc1cn[nH]c1-c1ccc(OC2CC(OCCC3CCOCC3)C2)cc1.Cl (centres unmarked) [EPZ020411 2HCl]
DSS ([1]; 1405R3 DSRT analysis): 0
AUC [1, 3]: 0.3
MIN [1, 4]: 97.2
SLOPE [1, 9]: -2.5
DSS [2, 6]: 0
MIN [2, 7]: 96.5
AUC [2, 8]: 1.7
SLOPE [2, 10]: -0.6

Nc1ccccc1NC(=O)c1ccc(CNC(=O)OCc2cccnc2)cc1 [Entinostat]
DSS ([1]; 1405R3 DSRT analysis): 10
AUC [1, 3]: 87.7
MIN [1, 4]: 5.2
EC50 [1, 5]: 1200 nM
DSS [2, 6]: 9.1
MIN [2, 7]: 8.3
AUC [2, 8]: 78
EC50 ([2]; Homo sapiens, 72 h): 1420 nM

COc1cccc2c1C(=O)c1c(O)c3c(c(O)c1C2=O)C[C@@](O)(C(=O)CO)C[C@@H]3O[C@H]1C[C@H](N)[C@@H](O)[C@H](C)O1 [Epirubicin]
DSS ([1]; 1405R3 DSRT analysis): 7.1
AUC [1, 3]: 64.9
MIN [1, 4]: 27.7
EC50 [1, 5]: 1310 nM
DSS [2, 6]: 13.9
MIN [2, 7]: 33.9
AUC [2, 8]: 113.1
EC50 ([2]; Homo sapiens, 72 h): 194 nM

C#Cc1cccc(Nc2ncnc3cc(OCCOC)c(OCCOC)cc23)c1 [Erlotinib HCl]
DSS ([1]; 1405R3 DSRT analysis): 0
AUC [1, 3]: 27.3
MIN [1, 4]: 82.4
DSS [2, 6]: 0
MIN [2, 7]: 77
AUC [2, 8]: 6.9

COc1cc2c(Oc3ccc(NC(=O)C4(C(=O)Nc5ccc(F)cc5)CC4)cc3F)ccnc2cc1OCCCN1CCOCC1 [Foretinib]
DSS ([1]; 1405R3 DSRT analysis): 2.9
AUC [1, 3]: 27.8
MIN [1, 4]: 51.5
EC50 [1, 5]: 2710 nM
DSS [2, 6]: 4.1
MIN [2, 7]: 32.7
AUC [2, 8]: 37.2
EC50 ([2]; Homo sapiens, 72 h): 2850 nM

CC[C@H](C)n1cc(C)c2c(C(=O)NCc3c(C)cc(C)[nH]c3=O)cc(-c3ccc(N4CCNCC4)nc3)cc21 [GSK126]
DSS ([1]; 1405R3 DSRT analysis): 0
AUC [1, 3]: 22.4
MIN [1, 4]: 85.6
SLOPE [1, 9]: -0.1
DSS [2, 6]: 0
MIN [2, 7]: 91
AUC [2, 8]: 2.7
SLOPE [2, 10]: -1

CCCc1cc(C)[nH]c(=O)c1CNC(=O)c1cc(-c2ccnc(N3CCN(C)CC3)c2)cc2c1cnn2C(C)C [GSK343]
DSS ([1]; 1405R3 DSRT analysis): 0
AUC [1, 3]: 13.6
MIN [1, 4]: 91.2
DSS [2, 6]: 0
MIN [2, 7]: 98.1
AUC [2, 8]: 2.9

O=C(CCc1ccc(CN[C@H](C(=O)OC2CCCC2)C2CCCCC2)cn1)NO [GSK3117391]
DSS ([1]; 1405R3 DSRT analysis): 8.4
AUC [1, 3]: 74.7
EC50 ([1]; 1405R3 DSRT analysis, 72 h): 1580 nM
MIN [1, 4]: 7.4
SLOPE [1, 9]: -1.9
EC50 ([2]; 783C-6 DSRT analysis, CellTiter-Glo viability, 72 h, fitted dose-response curve, Min.Conc.tested 1, Max.Conc.tested 10000): 2090 nM
DSS [2, 6]: 7.5
MIN [2, 7]: 4.1
AUC [2, 8]: 65.5
SLOPE [2, 10]: -2.5

O=C(O)CCNc1cc(N2CCc3ccccc3CC2)nc(-c2ccccn2)n1 [GSK J1]
DSS ([1]; 1405R3 DSRT analysis): 0
AUC [1, 3]: 0.1
MIN [1, 4]: 100
SLOPE [1, 9]: -0.1
DSS [2, 6]: 0
MIN [2, 7]: 99.9
AUC [2, 8]: 0
SLOPE [2, 10]: -1.3

CCOC(=O)CCNc1cc(N2CCc3ccccc3CC2)nc(-c2ccccn2)n1 [GSK J4 HCl]
DSS ([1]; 1405R3 DSRT analysis): 2.7
AUC [1, 3]: 26.1
MIN [1, 4]: 65
EC50 [1, 5]: 1800 nM
DSS [2, 6]: 0
MIN [2, 7]: 70.3
AUC [2, 8]: 8.9

c1ccc([C@@H]2C[C@H]2NC2CCNCC2)cc1 [GSK-LSD1 2HCl]
D1 [1]: 104.9
D2 [1]: 104.6
D3 [1]: 91.3
D4 [1]: 100.7
D5 [1]: 129.6
MAX [1]: 100
MIN [1]: 91.3
SLOPE [1]: -0.4
DSS ([1]; 1405R3 DSRT analysis): 0
AUC ([1]; 72 h): 5.8
D1 [2]: 98.8
D2 [2]: 106.9
D3 [2]: 94.2
D4 [2]: 93.9
D5 [2]: 108.3
MAX [2]: 100
MIN [2]: 93.9
SLOPE [2]: -0.3
AUC ([2]; 72 h): 6
DSS ([2]; 72 h): 0

COc1cc2ncnc(Nc3ccc(F)c(Cl)c3)c2cc1OCCCN1CCOCC1 [Gefitinib]
DSS ([1]; 1405R3 DSRT analysis): 3.6
AUC [1, 3]: 33.5
MIN [1, 4]: 70.6
DSS [2, 6]: 2.5
MIN [2, 7]: 77.5
AUC [2, 8]: 27

Nc1ccn([C@@H]2O[C@H](CO)[C@@H](O)C2(F)F)c(=O)n1 [Gemcitabine]
DSS ([1]; 1405R3 DSRT analysis): 17.6
AUC [1, 3]: 151.9
MIN [1, 4]: 40
EC50 [1, 5]: 26.1 nM
DSS [2, 6]: 7.6
MIN [2, 7]: 63.5
AUC [2, 8]: 82.5
EC50 ([2]; Homo sapiens, 72 h): 40.1 nM

CCN(CC)Cc1ccc2cc(COC(=O)Nc3ccc(C(=O)NO)cc3)ccc2c1 [Givinostat]
DSS ([1]; 1405R3 DSRT analysis): 9.2
AUC [1, 3]: 79.9
MIN [1, 4]: 1.5
EC50 [1, 5]: 1550 nM
DSS [2, 6]: 9.2
MIN [2, 7]: 1.5
AUC [2, 8]: 81.1
EC50 ([2]; Homo sapiens, 72 h): 1520 nM
